# ChEMBL document CHEMBL5465560, “Selectivity Literature for EUbOPEN Chemogenomic Library” (2024)
# What was measured:
# [1] = biological target: Mitogen-activated protein kinase 10 (Homo sapiens, UniProt P53779); assay: Selectivity interaction (KinomeScan (DiscoverX)) EUB0000092b MAPK10; details: at 10 µM
# [2] = biological target: Homeodomain-interacting protein kinase 1 (Homo sapiens, UniProt Q86Z02); assay: Selectivity interaction (Upstate Kinase Profiler service (Millipore)) EUB0000056c HIPK1; details: at 1 µM
# [3] = biological target: T1, Serine/threonine-protein kinase Sgk3 (Homo sapiens) (UniProt Q96BR1); assay: Selectivity interaction (KinomeScan (DiscoverX)) EUB0000655a SGK3; details: at 10 µM
# T1 sequence (whole entry): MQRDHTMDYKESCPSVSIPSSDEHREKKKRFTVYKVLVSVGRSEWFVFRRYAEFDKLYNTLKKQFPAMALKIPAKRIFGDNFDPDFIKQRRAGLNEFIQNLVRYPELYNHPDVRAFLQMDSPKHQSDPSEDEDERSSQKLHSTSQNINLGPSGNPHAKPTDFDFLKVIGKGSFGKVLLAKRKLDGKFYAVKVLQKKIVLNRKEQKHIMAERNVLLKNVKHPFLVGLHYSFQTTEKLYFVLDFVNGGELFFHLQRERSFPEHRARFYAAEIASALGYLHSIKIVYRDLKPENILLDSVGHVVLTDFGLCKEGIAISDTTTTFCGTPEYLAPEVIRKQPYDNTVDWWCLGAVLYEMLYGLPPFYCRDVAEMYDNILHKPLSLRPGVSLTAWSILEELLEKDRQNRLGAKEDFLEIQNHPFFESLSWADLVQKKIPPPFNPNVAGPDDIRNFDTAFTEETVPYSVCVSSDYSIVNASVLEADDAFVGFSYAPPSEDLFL
# [4] = biological target: T2, Dual specificity mitogen-activated protein kinase kinase 7 (Homo sapiens) (UniProt O14733); assay: Selectivity interaction (Millipore kinase profiler) EUB0000124b MAP2K7; details: at 10 µM
# T2 sequence (whole entry): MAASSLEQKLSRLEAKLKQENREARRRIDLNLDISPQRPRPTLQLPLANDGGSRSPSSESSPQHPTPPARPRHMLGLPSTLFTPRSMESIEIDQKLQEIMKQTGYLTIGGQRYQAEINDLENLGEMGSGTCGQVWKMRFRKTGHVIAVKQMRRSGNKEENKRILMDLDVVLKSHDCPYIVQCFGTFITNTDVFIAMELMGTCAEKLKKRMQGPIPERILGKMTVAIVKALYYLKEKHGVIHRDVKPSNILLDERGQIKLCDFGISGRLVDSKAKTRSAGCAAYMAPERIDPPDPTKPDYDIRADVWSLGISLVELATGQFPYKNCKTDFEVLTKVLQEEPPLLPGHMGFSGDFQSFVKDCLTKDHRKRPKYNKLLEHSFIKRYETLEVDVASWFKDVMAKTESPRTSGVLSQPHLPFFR
# [5] = biological target: Mitogen-activated protein kinase 14 (Homo sapiens, UniProt Q16539); assay: Selectivity interaction (Kinase panel (Z-LYTE Assay)) EUB0001632a MAPK14; details: at 10 µM
# [6] = biological target: Dual specificity mitogen-activated protein kinase kinase 1 (Homo sapiens, UniProt Q02750); assay: Selectivity interaction (Kinase panel (Invitrogen)) EUB0000639a MAP2K1; details: at 200 nM
# [7] = biological target: Receptor tyrosine-protein kinase erbB-2 (Homo sapiens, UniProt P04626); details: at 10 µM
# [8] = biological target: T3, Protein kinase C iota type (Homo sapiens) (UniProt P41743); assay: Selectivity interaction (KinomeScan (DiscoverX)) EUB0000618a PRKCI; details: at 10 µM
# T3 sequence (whole entry): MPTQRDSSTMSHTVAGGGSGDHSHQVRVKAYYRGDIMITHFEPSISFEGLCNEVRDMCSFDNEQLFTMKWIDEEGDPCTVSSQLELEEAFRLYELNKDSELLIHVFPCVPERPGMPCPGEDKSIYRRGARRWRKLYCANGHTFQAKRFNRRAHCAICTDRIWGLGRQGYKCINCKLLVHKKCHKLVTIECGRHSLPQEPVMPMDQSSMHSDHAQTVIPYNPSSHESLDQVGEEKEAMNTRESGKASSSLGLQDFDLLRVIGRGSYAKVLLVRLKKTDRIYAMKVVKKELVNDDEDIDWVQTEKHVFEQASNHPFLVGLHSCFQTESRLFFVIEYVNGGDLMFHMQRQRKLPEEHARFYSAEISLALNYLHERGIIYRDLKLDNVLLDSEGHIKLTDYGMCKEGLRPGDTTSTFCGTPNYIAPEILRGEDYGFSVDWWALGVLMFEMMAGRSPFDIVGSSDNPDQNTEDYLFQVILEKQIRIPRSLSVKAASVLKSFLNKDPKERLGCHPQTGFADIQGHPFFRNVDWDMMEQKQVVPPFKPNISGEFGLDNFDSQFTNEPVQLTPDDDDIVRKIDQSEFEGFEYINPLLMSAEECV
# [9] = biological target: T4, Serine/threonine-protein kinase 3 (Homo sapiens) (UniProt Q13188); assay: Selectivity interaction (ActivX KiNativ screen (ex vivo kinase selectivity in human PBMCs)) EUB0001619a STK3; assay type: cell-based; details: PBMC, at 1 µM
# T4 sequence (whole entry): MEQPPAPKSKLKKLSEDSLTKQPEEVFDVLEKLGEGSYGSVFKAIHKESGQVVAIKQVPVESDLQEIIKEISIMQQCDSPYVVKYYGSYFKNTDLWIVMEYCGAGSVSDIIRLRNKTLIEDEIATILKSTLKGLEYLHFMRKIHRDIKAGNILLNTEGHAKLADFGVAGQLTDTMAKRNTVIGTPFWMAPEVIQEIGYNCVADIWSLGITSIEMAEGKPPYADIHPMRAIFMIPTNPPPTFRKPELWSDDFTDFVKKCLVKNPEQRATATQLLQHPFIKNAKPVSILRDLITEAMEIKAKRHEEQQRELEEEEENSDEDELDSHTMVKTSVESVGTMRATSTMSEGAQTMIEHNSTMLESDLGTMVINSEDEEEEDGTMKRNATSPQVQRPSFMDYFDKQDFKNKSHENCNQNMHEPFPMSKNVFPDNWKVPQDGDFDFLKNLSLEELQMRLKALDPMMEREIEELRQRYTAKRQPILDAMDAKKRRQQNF
# Sequence of Mitogen-activated protein kinase 10 (P53779 whole entry): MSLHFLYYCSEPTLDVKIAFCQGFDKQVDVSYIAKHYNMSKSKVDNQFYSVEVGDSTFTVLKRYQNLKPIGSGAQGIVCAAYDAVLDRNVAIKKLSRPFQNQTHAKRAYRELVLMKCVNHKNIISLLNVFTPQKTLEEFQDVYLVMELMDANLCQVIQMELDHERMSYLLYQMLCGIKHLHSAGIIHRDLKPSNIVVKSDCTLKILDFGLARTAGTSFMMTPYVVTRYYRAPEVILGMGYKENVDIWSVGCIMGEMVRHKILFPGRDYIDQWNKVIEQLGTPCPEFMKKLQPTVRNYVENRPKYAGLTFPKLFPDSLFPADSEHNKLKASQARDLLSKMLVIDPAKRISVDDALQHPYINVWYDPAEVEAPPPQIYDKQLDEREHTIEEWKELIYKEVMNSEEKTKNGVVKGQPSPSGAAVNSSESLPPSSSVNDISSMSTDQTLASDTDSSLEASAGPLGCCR
# Sequence of Dual specificity mitogen-activated protein kinase kinase 1 (Q02750 whole entry): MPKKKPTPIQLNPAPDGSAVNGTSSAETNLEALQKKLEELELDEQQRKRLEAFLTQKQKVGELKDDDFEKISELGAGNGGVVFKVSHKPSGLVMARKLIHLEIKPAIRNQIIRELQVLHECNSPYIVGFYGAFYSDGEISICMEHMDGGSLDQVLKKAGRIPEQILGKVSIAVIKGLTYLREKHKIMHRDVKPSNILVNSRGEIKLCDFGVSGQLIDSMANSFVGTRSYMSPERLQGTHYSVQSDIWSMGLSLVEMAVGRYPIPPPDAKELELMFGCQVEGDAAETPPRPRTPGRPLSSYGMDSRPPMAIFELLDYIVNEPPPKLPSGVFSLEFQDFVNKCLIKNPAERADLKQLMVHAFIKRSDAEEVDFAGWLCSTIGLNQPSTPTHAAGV
# Sequence of Receptor tyrosine-protein kinase erbB-2 (P04626 whole entry): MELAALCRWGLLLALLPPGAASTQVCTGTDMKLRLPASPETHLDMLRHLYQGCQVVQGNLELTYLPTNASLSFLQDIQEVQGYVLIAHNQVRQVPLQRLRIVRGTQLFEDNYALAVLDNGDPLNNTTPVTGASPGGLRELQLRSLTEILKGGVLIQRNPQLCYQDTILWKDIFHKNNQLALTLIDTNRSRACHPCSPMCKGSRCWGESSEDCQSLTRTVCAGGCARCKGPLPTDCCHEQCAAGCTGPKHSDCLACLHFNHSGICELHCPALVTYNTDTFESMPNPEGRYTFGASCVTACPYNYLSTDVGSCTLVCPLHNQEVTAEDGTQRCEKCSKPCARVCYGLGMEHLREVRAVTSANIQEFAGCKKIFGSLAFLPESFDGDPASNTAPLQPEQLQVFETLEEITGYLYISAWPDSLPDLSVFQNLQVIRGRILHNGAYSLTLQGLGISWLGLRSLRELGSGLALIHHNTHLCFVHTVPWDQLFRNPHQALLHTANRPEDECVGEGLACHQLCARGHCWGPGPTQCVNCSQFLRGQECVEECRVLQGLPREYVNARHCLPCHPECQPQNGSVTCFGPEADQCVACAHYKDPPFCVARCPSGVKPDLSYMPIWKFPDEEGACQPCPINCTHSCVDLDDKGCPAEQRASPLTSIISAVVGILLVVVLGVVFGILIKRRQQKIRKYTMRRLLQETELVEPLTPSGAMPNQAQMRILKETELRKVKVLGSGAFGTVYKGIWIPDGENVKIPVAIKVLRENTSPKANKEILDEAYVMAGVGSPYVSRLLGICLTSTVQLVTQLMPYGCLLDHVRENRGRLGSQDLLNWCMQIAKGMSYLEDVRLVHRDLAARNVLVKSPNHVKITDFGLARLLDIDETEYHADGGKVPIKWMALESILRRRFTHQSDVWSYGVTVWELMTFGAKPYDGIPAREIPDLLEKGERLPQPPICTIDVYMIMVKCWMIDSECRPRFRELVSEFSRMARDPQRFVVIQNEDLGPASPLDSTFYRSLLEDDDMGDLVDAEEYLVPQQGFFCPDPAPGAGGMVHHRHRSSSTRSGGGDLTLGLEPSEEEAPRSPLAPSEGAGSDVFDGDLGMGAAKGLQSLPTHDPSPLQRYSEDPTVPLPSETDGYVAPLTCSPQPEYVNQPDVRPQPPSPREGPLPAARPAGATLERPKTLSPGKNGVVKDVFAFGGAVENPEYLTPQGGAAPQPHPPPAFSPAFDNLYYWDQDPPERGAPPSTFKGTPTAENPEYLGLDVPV
# Sequence of Homeodomain-interacting protein kinase 1 (Q86Z02 whole entry, looked up): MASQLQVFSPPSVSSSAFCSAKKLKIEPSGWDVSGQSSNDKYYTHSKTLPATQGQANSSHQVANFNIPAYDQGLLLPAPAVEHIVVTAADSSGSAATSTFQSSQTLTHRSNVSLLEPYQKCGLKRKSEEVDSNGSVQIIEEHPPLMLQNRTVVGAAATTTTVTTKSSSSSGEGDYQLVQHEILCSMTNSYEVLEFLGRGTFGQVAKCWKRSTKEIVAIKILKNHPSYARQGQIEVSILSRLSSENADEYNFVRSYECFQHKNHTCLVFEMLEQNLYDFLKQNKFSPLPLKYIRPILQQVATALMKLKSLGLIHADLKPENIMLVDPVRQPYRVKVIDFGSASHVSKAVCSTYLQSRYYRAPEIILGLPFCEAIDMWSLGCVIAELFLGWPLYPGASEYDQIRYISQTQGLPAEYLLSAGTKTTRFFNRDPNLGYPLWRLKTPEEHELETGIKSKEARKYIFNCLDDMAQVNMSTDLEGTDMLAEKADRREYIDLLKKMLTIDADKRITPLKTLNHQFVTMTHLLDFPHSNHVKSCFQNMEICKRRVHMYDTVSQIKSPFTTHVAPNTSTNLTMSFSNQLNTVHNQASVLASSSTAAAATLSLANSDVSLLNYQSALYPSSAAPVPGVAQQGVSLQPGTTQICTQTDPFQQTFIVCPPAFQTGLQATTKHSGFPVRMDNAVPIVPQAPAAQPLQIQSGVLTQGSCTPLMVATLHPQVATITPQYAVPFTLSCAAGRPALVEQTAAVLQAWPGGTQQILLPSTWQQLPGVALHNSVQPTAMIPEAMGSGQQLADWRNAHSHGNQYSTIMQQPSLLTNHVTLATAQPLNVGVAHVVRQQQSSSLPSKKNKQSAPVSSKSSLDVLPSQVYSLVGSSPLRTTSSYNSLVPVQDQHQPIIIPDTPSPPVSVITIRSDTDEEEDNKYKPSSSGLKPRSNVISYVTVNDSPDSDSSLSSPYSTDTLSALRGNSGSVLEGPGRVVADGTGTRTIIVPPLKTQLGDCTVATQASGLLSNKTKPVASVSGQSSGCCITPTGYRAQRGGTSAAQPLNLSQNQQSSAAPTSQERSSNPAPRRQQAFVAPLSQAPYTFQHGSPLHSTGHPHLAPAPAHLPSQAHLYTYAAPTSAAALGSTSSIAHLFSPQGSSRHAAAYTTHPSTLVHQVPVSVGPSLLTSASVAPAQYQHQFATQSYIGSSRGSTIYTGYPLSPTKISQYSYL
# Sequence of Mitogen-activated protein kinase 14 (Q16539 whole entry): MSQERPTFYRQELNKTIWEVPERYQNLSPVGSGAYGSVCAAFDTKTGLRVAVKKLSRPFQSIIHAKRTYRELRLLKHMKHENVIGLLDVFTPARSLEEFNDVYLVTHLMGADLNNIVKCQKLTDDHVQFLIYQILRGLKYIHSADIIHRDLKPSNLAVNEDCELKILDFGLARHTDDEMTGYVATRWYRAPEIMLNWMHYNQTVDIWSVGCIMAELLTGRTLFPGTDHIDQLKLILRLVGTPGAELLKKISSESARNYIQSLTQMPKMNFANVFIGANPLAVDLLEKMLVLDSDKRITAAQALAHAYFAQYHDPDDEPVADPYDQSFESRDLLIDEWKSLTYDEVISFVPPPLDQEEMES
compound,measurement,setting,value
CCC(=O)N1CCN(c2ccc(-n3c(=O)ccc4cnc5ccc(-c6cnc7ccccc7c6)cc5c43)cc2C(F)(F)F)CC1,% of control,[1],31%
Cc1ccc(-c2ccc3c(ccc4sc5c(c43)NC[C@@H](C)NC5=O)n2)cn1,% of inhibition,[2],7%
CN(C)CCOc1ccc(-c2nc(-c3ccncc3)c(-c3ccc4c(c3)CC/C4=N\O)[nH]2)cc1,% of control,[3],88%
CC(=O)Nc1cccc(-n2c(=O)n(C3CC3)c(=O)c3c(Nc4ccc(I)cc4F)n(C)c(=O)c(C)c32)c1,% of control,[4],109%
Cn1cc(-n2cnc3c(NCc4nc5cc(Cl)c(Cl)cc5[nH]4)nc(N4CCOCC4)nc32)cn1,% of control,[5],-3.84%
CC[C@@H]1[C@H](F)C(=O)N[C@@H]1COc1nccc2cc(C(N)=O)c(OC)cc12 [ZIMLOVISERTIB],% of inhibition,[6],9.31%
COCC(=O)NC/C=C/c1ccc2ncnc(Nc3ccc(Oc4ccc(C)nc4)c(C)c3)c2c1 [CP-724714],% of control,[7],0%
O[C@H]1CC[C@H](Nc2ncc3nc(Nc4c(F)cc(F)cc4F)n([C@H]4CCOC4)c3n2)CC1,% of control,[8],100%
N#Cc1cccc(-c2c[nH]c3ncnc(N4CCOCC4)c23)c1,% of inhibition,[9],74%
